Consider 19 molecules from patent US8957078B2, “Compounds useful as inhibitors of ATR kinase” (Vertex Pharmaceuticals Incorporated, priority 2013, dated 2015).

Where only a bound is given, the exact number is not on record here.

Test [1] addresses T1, ATR kinase (full-length ATR) (Homo sapiens, UniProt Q13535).
T1 construct: in the presence of 5 nM full-length ATR
The experiment in a line: ATR Inhibition Assay (radioactive-phosphate incorporation). Format: biochemical. Particulars: Ki(app); 5 nM full-length ATR, 10 μM ATP, 800 μM target peptide, 25° C. On the procedure:
Compounds were screened for their ability to inhibit ATR kinase using a radioactive-phosphate incorporation assay. Assays were carried out in a mixture of 50 mM Tris/HCl (pH 7.5), 10 mM MgCl2 and 1 mM DTT. Final substrate concentrations were 10 μM [γ-33P]ATP (3 mCi 33P ATP/mmol ATP, Perkin Elmer) and 800 μM target peptide (ASELPASQPQPFSAKKK (SEQ. ID NO: 1)).
Assays were carried out at 25° C. in the presence of 5 nM full-length ATR. An assay stock buffer solution was prepared containing all of the reagents listed above, with the exception of ATP and the test compound of interest. 13.5 μL of the stock solution was placed in a 96 well plate followed by addition of 2 μL of DMSO stock containing serial dilutions of the test compound (typically starting from a final concentration of 15 μM with 3-fold serial dilutions) in duplicate (final DMSO concentration 7%). The plate was pre-incubated for 10 minutes at 25° C. and the reaction initiated by addition of 15 μL [γ-33P]ATP (final concentration 10 μM).
The reaction was stopped after […] by the addition of 30 μL 0.1M phosphoric acid containing 2 mM ATP. A multiscreen phosphocellulose filter 96-well plate (Millipore, Cat no. MAPHN0B50) was pretreated with 100 μL 0.2M phosphoric acid prior to the addition of 45 μL of the stopped assay mixture. The plate was washed with 5×200 μL 0.2M phosphoric acid. After drying, 100 μL Optiphase ‘SuperMix’ liquid scintillation cocktail (Perkin Elmer) was added to the well prior to scintillation counting (1450 Microbeta Liquid Scintillation Counter, Wallac).
After removing mean background values for all of the data points, Ki(app) data were calculated from non-linear regression analysis of the initial rate data using the Prism software package (GraphPad Prism version 3.0cx for Macintosh, GraphPad Software, San Diego Calif., USA).

Test [2] relates to HCT116 colorectal cancer cells. The experiment in a line: Cisplatin Sensitization Assay (96 h cell viability MTS). Format: cell-based. As to conditions: concentration of compound required to reduce the IC50 of Cisplatin alone by at least 3-fold; HCT116, 96 h MTS. On the procedure: Compounds can be screened for their ability to sensitize HCT116 colorectal cancer cells to Cisplatin using a 96 h cell viability (MTS) assay. […] Compounds and Cisplatin are then both added simultaneously to the cell media in 2-fold serial dilutions from a top final concentration of 10 μM as a full matrix of concentrations in a final cell volume of 200 μl, and the cells are then incubated at 37° C. in 5% CO2. After 96 h, 40 μl of MTS reagent (Promega G358a) is added to each well and the cells are incubated for 1 h at 37° C. in 5% CO2. Finally, absorbance is measured at 490 nm using a SpectraMax Plus 384 reader (Molecular Devices) and the concentration of compound required to reduce the IC50 of Cisplatin alone by at least 3-fold (to 1 decimal place) can be reported.

T1 sequence (Q13535 whole entry): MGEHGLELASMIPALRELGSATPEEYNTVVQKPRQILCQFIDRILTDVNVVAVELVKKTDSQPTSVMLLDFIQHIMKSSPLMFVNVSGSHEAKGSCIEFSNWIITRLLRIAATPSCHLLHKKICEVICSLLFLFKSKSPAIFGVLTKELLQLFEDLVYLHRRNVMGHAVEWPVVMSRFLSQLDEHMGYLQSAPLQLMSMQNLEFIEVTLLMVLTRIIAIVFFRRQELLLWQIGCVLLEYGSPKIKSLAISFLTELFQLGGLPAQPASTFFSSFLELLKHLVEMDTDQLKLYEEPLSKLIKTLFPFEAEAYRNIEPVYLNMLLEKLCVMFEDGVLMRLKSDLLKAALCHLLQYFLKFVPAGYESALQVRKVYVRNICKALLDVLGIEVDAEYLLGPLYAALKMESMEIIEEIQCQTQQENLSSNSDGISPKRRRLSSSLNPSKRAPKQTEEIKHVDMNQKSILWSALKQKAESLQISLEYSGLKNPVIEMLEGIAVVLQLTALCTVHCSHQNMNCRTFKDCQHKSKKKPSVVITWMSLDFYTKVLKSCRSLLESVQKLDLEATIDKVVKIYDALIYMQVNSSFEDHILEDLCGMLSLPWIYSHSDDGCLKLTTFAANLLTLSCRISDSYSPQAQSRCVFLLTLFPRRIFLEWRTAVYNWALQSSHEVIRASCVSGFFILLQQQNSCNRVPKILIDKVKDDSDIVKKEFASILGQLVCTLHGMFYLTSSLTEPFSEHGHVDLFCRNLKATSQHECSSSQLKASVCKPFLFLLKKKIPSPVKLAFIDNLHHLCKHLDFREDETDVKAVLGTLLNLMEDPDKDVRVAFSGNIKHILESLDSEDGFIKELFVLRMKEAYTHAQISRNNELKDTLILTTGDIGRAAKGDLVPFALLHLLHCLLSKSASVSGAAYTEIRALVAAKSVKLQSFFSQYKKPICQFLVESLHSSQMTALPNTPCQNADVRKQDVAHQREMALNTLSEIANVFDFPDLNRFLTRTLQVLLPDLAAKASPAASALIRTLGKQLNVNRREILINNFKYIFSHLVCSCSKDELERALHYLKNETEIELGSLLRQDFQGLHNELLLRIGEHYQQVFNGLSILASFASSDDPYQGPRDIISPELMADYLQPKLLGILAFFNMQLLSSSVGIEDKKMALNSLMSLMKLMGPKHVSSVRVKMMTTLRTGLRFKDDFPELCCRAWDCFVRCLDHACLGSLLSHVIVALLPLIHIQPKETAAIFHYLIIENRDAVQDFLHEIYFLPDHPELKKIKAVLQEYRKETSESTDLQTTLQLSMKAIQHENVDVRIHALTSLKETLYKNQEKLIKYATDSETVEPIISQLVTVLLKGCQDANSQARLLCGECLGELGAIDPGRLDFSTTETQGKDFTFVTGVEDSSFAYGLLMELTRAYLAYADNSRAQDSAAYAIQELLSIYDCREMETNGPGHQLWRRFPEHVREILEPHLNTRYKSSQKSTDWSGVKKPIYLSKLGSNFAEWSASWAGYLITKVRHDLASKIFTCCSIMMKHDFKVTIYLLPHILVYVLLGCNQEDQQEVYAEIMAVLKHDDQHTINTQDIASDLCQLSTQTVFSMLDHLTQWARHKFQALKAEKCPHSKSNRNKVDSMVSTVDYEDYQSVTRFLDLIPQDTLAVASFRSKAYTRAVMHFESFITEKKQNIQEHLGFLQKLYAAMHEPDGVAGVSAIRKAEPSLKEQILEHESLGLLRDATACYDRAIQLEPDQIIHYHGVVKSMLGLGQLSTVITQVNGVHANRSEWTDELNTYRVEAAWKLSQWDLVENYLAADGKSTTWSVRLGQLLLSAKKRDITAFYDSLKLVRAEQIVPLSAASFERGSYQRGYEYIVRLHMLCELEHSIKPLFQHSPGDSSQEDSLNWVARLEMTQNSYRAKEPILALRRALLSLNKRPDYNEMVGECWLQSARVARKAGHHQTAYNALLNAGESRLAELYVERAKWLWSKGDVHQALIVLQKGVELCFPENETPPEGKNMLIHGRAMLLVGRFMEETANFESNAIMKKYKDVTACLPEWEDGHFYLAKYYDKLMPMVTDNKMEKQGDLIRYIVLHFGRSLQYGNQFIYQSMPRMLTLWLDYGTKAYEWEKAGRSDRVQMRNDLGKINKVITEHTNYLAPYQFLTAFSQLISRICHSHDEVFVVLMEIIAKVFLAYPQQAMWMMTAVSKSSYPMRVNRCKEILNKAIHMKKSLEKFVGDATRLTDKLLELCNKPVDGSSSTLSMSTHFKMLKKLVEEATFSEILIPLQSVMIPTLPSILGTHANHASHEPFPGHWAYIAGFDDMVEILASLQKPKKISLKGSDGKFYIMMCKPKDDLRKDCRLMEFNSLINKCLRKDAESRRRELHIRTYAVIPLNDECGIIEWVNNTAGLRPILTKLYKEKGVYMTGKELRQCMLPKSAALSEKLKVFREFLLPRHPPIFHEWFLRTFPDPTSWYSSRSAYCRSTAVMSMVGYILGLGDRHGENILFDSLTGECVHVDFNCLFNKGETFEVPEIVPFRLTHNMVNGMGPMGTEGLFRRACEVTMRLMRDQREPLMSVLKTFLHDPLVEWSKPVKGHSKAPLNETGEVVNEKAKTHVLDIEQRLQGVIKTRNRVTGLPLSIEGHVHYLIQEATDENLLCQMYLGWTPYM

With `CN1CCN(C(=O)C2CCN(c3cnncc3NC(=O)c3c(N)nn4cc(F)cnc34)CC2)CC1` [I-B-5, 2-amino-6-fluoro-N-(5-(4-(4-methylpiperazine-1-carbonyl)piperidin-1-yl)pyridazin-4-yl)pyrazolo[1,5-a]pyrimidine-3-carboxamide], the Ki in test [1] was in the range of 10 to 1000 nM. The “Cisplatin Sensitization Assay” value in test [2] is listed as “++ (Compounds with a Cisplatin sensitization value >0.02 μM but <0.2 μM are marked with “++.”)”.
The matching figures for `CN1CCC[C@H](Oc2ncncc2NC(=O)c2c(N)nn3cc(F)cnc23)C1` [I-A-2, (S)-2-amino-6-fluoro-N-(4-((1-methylpiperidin-3-yl)oxy)pyrimidin-5-yl)pyrazolo[1,5-a]pyrimidine-3-carboxamide]: 10 to 1000 nM and “+ (Compounds with a Cisplatin sensitization value >0.2 μM but <5 μM are marked with “+.”)”.
The matching figures for `Cc1nsc(NC(=O)c2c(N)nn3cc(F)cnc23)c1C1=CCOCC1` [I-E-4, 2-amino-N-(4-(3,6-dihydro-2H-pyran-4-yl)-3-methylisothiazol-5-yl)-6-fluoropyrazolo[1,5-a]pyrimidine-3-carboxamide]: under 10 nM and “+++ (Compounds with a Cisplatin sensitization value of <0.02 μM are marked with “+++.”)”.
The matching figures for `CS(=O)(=O)C1CCN(c2cnccc2NC(=O)c2c(N)nn3cc(F)cnc23)CC1` [I-C-10, 2-amino-6-fluoro-N-(3-(4-(methylsulfonyl)piperidin-1-yl)pyridin-4-yl)pyrazolo[1,5-a]pyrimidine-3-carboxamide]: under 10 nM and “+++ (Compounds with a Cisplatin sensitization value of <0.02 μM are marked with “+++.”)”.
For `CN1CCC[C@@H](Oc2ncncc2NC(=O)c2c(N)nn3cc(F)cnc23)C1` [I-A-1, (R)-2-amino-6-fluoro-N-(4-((1-methylpiperidin-3-yl)oxy)pyrimidin-5-yl)pyrazolo[1,5-a]pyrimidine-3-carboxamide], the Ki in test [1] is 1000 to 5000 nM. Further, the “Cisplatin Sensitization Assay” value in test [2] is “+ (Compounds with a Cisplatin sensitization value >0.2 μM but <5 μM are marked with “+.”)”.
The matching figures for `Cc1nsc(NC(=O)c2c(N)nn3cc(F)cnc23)c1CN1CCN(C)CC1` [I-E-19, 2-amino-6-fluoro-N-(3-methyl-4-((4-methylpiperazin-1-yl)methyl)isothiazol-5-yl)pyrazolo[1,5-a]pyrimidine-3-carboxamide]: under 10 nM and “+++ (Compounds with a Cisplatin sensitization value of <0.02 μM are marked with “+++.”)”.
In the same order, the values of `CN1CCC(Oc2ncncc2NC(=O)c2c(N)nn3cc(Cl)cnc23)CC1` [I-A-6, 2-amino-6-chloro-N-(4-((1-methylpiperidin-4-yl)oxy)pyrimidin-5-yl)pyrazolo[1,5-a]pyrimidine-3-carboxamide] are 1000 to 5000 nM and “++ (Compounds with a Cisplatin sensitization value >0.02 μM but <0.2 μM are marked with “++.”)”.
The matching figures for `Nc1nn2cc(F)cnc2c1C(=O)Nc1cncnc1OC1CCN(C2COC2)CC1` [I-A-8, 2-amino-6-fluoro-N-(4-((1-(oxetan-3-yl)piperidin-4-yl)oxy)pyrimidin-5-yl)pyrazolo[1,5-a]pyrimidine-3-carboxamide]: 10 to 1000 nM and “+++ (Compounds with a Cisplatin sensitization value of <0.02 μM are marked with “+++.”)”.
For `Cc1nsc(NC(=O)c2c(N)nn3cc(F)cnc23)c1C1CC1` [I-E-2, 2-amino-N-(4-cyclopropyl-3-methylisothiazol-5-yl)-6-fluoropyrazolo[1,5-a]pyrimidine-3-carboxamide], in test [1], the Ki is 10 to 1000 nM. Besides, the “Cisplatin Sensitization Assay” value in test [2] was “+++ (Compounds with a Cisplatin sensitization value of <0.02 μM are marked with “+++.”)”.
With `Cc1nsc(NC(=O)c2c(N)nn3cc(F)cnc23)c1-c1cncn1C` [I-E-6, 2-amino-6-fluoro-N-(3-methyl-4-(1-methyl-1H-imidazol-5-yl)isothiazol-5-yl)pyrazolo[1,5-a]pyrimidine-3-carboxamide], the Ki in test [1] was in the range of 10 to 1000 nM. For the same molecule, the “Cisplatin Sensitization Assay” value in test [2] is given as “+++ (Compounds with a Cisplatin sensitization value of <0.02 μM are marked with “+++.”)”.
`Nc1nn2cc(F)cnc2c1C(=O)Nc1ccncc1N1CCC(C(=O)N2CCC(N3CCCC3)CC2)CC1` [I-C-8, 2-amino-6-fluoro-N-(3-(4-(4-(pyrrolidin-1-yl)piperidine-1-carbonyl)piperidin-1-yl)pyridin-4-yl)pyrazolo[1,5-a]pyrimidine-3-carboxamide]: the Ki in test [1] fell in the range of 10 to 1000 nM. Further, the “Cisplatin Sensitization Assay” value in test [2] is on record as “+++ (Compounds with a Cisplatin sensitization value of <0.02 μM are marked with “+++.”)”.
The matching figures for `Cc1nsc(NC(=O)c2c(N)nn3cc(F)cnc23)c1-c1ccccc1` [I-E-7, 2-amino-6-fluoro-N-(3-methyl-4-phenylisothiazol-5-yl)pyrazolo[1,5-a]pyrimidine-3-carboxamide]: under 10 nM and “+++ (Compounds with a Cisplatin sensitization value of <0.02 μM are marked with “+++.”)”.
On to `Cc1ncc(NC(=O)c2c(N)nn3cc(F)cnc23)n1-c1ccccc1` [I-D-6, 2-amino-6-fluoro-N-(2-methyl-1-phenyl-1H-imidazol-5-yl)pyrazolo[1,5-a]pyrimidine-3-carboxamide], for which, in test [1], the Ki fell in the range of 10 to 1000 nM. The “Cisplatin Sensitization Assay” value in test [2] is “+++ (Compounds with a Cisplatin sensitization value of <0.02 μM are marked with “+++.”)”.
In the same order, the values of `Nc1nn2cc(F)cnc2c1C(=O)Nc1cnncc1N1CCC(C(=O)N2CC(F)(F)C2)CC1` [I-B-21, 2-amino-N-(5-(4-(3,3-difluoroazetidine-1-carbonyl)piperidin-1-yl)pyridazin-4-yl)-6-fluoropyrazolo[1,5-a]pyrimidine-3-carboxamide] are 10 to 1000 nM and “+++ (Compounds with a Cisplatin sensitization value of <0.02 μM are marked with “+++.”)”.
The matching figures for `Nc1nn2cc(F)cnc2c1C(=O)Nc1cnncc1N1CCC(F)CC1` [I-B-20, 2-amino-6-fluoro-N-(5-(4-fluoropiperidin-1-yl)pyridazin-4-yl)pyrazolo[1,5-a]pyrimidine-3-carboxamide]: 10 to 1000 nM and “+++ (Compounds with a Cisplatin sensitization value of <0.02 μM are marked with “+++.”)”.
In the same order, the values of `Cc1cc(-c2c(C)nsc2NC(=O)c2c(N)nn3cc(F)cnc23)ccn1` [I-E-13, 2-amino-6-fluoro-N-(3-methyl-4-(2-methylpyridin-4-yl)isothiazol-5-yl)pyrazolo[1,5-a]pyrimidine-3-carboxamide] are 10 to 1000 nM and “+++ (Compounds with a Cisplatin sensitization value of <0.02 μM are marked with “+++.”)”.
Turning to `Cc1nsc(NC(=O)c2c(N)nn3cc(F)cnc23)c1N1CCCC1` [I-E-21, 2-amino-6-fluoro-N-(3-methyl-4-(pyrrolidin-1-yl)isothiazol-5-yl)pyrazolo[1,5-a]pyrimidine-3-carboxamide], the Ki in test [1] fell in the range of 10 to 1000 nM. The “Cisplatin Sensitization Assay” value in test [2] is recorded as “++ (Compounds with a Cisplatin sensitization value >0.02 μM but <0.2 μM are marked with “++.”)”.
The matching figures for `CN1CCN(C(=O)C2CCN(c3cnccc3NC(=O)c3c(N)nn4cc(F)cnc34)CC2)CC1` [I-C-3, 2-amino-6-fluoro-N-(3-(4-(4-methylpiperazine-1-carbonyl)piperidin-1-yl)pyridin-4-yl)pyrazolo[1,5-a]pyrimidine-3-carboxamide]: 10 to 1000 nM and “++ (Compounds with a Cisplatin sensitization value >0.02 μM but <0.2 μM are marked with “++.”)”.
On to `CC(C)(C)N1CCN(C(=O)C2CCN(c3cnncc3NC(=O)c3c(N)nn4cc(F)cnc34)CC2)CC1` [I-B-10, 2-amino-N-(5-(4-(4-(tert-butyl)piperazine-1-carbonyl)piperidin-1-yl)pyridazin-4-yl)-6-fluoropyrazolo[1,5-a]pyrimidine-3-carboxamide], for which the Ki in test [1] fell in the range of 10 to 1000 nM. Besides, in test [2], the “Cisplatin Sensitization Assay” value is “++ (Compounds with a Cisplatin sensitization value >0.02 μM but <0.2 μM are marked with “++.”)”.
